From patent publication US20100137344A1, “INDUCTION OF ANALGESIA IN NEUROPATHIC PAIN” (University Court of the University of Edinburgh, priority 2006, published 2010)
Like-named read-outs stand apart in the source and are kept apart here.

Columns and labels:
[1] = tested on: rats with chronic constriction injury (CCI) to sciatic nerve; experiment: Intrathecal application in CCI rats, behavioural reflex testing (PWL, PWT); assay type: in vivo, rat; conditions: for duration of significant reversal of sensitised responses: (−)-menthol 200 nmol; for EC50: Rattus norvegicus, central
Experimental: Pain models were generated under halothane anaesthesia (Zeneca, Cheshire, UK). For the chronic constriction injury (CCI) model of neuropathic pain, four ligatures were tied loosely to constrict the sciatic nerve at mid-thigh level (as described previously^[39]). An inflammatory pain model was generated by injecting 100 μl of Complete Freund's Adjuvant (CFA, Sigma-Aldrich Ltd) into the ventral surface of the right hindpaw^[39]. A model of peripheral demyelination-induced pain was produced by focal application of lysolecithin to the sciatic nerve^[40]. Peak behavioural sensitisation was observed post-surgically between days 10-16 for CCI, 1-3 for CFA, and 7-14 for lysolecithin, when pharmacological and electrophysiological experiments and tissue removal were conducted.
(§1) Thermal sensitivity was assessed by measuring paw withdrawal latency (PWL, s) in response to a noxious thermal stimulus (Hargreaves' thermal stimulator, Linton Instrumentation, Diss, UK) directed to the hindpaw mid-plantar glabrous surface. Mechanical sensitivity was recorded as the paw withdrawal threshold (PWT, mN/mm^2) to calibrated von Frey filaments (Stoelting, Ill., US), as previously described^[39]. Sensitivity to noxious cold was assessed by placing animals in a waterbath with an aluminium floor containing 1 cm deep 4° C. water and counting the time the paw was held suspended over a 20 s period.
The following drugs were applied intrathecally in a 50 μl volume of saline-based vehicle at 37° C.: icilin (2.5-200 μM in saline with 0.2% dimethylformamide, DMF), LY 341495 (100 μM in saline), UBP 1112 (200 μM in saline), 2R,4R-APDC ((2R, 4R)-4-aminopyrrolidine-2,4-dicarboxylate), 300 μM in saline), ACPT-III ((1R,3R,4S)-1-aminocyclopentane-1,3,4-tricarboxylic acid), 3 mM in saline), AP-4, ((L-(1)-2-amino-4-phosphonobutyric acid), 3 mM in saline), naloxone (0.5 mM in saline), NMDA (75 μM in saline) and ACPC (1-aminocyclopropanecarboxylic acid, 15 μM in saline) (Tocris Cookson, Bristol, UK), (−)-menthol (1R,2S,5R-(−)-menthol, 4 mM in saline), cinnamaldehyde (1.5 mM in saline) and Ruthenium Red (5 μM in saline) (Sigma-Aldrich Co. Ltd, UK) and allicin (0.5 mM in saline with 0.5% DMF) and diallyl disulphide (DADS, 1 mM in saline with 0.5% DMF) (LKT Laboratories Inc., St Paul, Minn., USA). Drugs were injected into the L5/6 intrathecal space under brief halothane anaesthesia, using a 25-gauge needle microsyringe (BD Biosciences, Oxford, UK), as described previously^[39] in animals that were at peak levels of behavioural sensitisation. Behavioural reflex testing commenced 15 min following injection to allow recovery from anaesthesia^[40,41,42] and continued every 5 min thereafter until readings returned to baseline levels (n=6 in each case). We, and others^[40,41,42] find complete recovery from anaesthetic by 15 minutes. All appropriate controls were carried out to eliminate the possibility of effects due to vehicle or to injection procedure.
The TRPM8 channel activators, icilin and (−)-menthol were tested in CCI and naïve animals. The effects of icilin were additionally assessed in animals with CFA-induced inflammation or with lysolecithin-induced demyelination. Icilin was also co-administered with the μ-opioid receptor antagonist naloxone, the Group II metabotropic glutamate receptor (mGluR) antagonist, LY 341495, or the Group III mGluR antagonist, UBP 1112. The effects of these antagonists alone as well as effects of the Group II mGluR agonist, 2R,4R-APDC and the Group III mGluR agonists, ACPT-III and AP-4, were assessed in CCI animals. The TRPA1 channel activator, cinnamaldehyde, alone and with icilin, was tested in CCI animals and in naïve animals. Further TRPA1 channel activators, allicin and diallyl disulphide were assessed in naïve animals. Both icilin and cinnamaldehyde effects in CCI animals were also investigated in the additional presence of Ruthenium Red.

[2] = tested on: naïve rats; experiment: Topical application to paws of naïve rats, behavioural reflex testing (PWL, PWT); assay type: in vivo, rat; conditions: Naïve
Experimental: as §1
Icilin was applied at concentrations of 2.5-500 μM (in water with 0.2% DMF), by placing CCI or naïve rats unrestrained for 5 min in a 1 cm deep waterbath (sufficient to cover paws), which was thermostatically controlled to a temperature of 30° C., or by very lightly anaesthetising rats and immersing hindpaws in small tubes containing 5 ml icilin (500 μM-5 mM, with a vehicle of 45% dimethylformamide in 0.2% aqueous Tween 80) for 5 min, followed by sensory testing for 60-80 mins. The effects of (−)-menthol and its stereoisomers isomenthol (1S,2R,5R-menthol,) and (+)-menthol (1S,2R,5S(+)-menthol) (4-16 mM in 80% ethanol) were also assessed. Relevant vehicles were always assessed in similar experiments. As a contrast, the effect of cinnamaldehyde (1.5 mM in water) and the effect of cinnamaldehyde with additional icilin (80 μM in water with 0.2% DMF) were assessed in naïve animals. The effects of icilin (80 μM) were further assessed in CCI animals that had undergone antisense and mis-sense treatment for knockdown of TRPM8 or immediately following intrathecal injection of either LY 341495 or UBP 1112. […] The effects of brief paw immersion at different temperatures (10-22° C. for 5 min) on CCI rats were assessed by mechanical testing. The effects of intrathecal LY 341495 or UBP 1112 on the reversal of ipsilateral sensitisation in CCI following a 16° C. cool challenge for 5 min were measured. Reflex testing commenced 5 minutes following challenge, unless animals had been anaesthetised, in which case 15 minutes was allowed for recovery. Six replicate animals were tested in all pharmacological experiments.

[3] = tested on: model of cancer-induced bone pain; experiment: Cancer-induced bone pain model (von Frey, rotarod paw lifts); assay type: in vivo; conditions: topical icilin
Excerpt: The model of cancer-induced bone pain was set up according to Medhurst et al., 2002 Pain 96: 129-40.

[4] = (−)-menthol 200 nmol intrathecal alone, 20-30 minutes post-injection
[5] = icilin 1000 μM applied to paw, 15 mins
[6] = icilin 1000 μM applied to paw, 50 mins
[7] = icilin 2500 μM applied to paw, 15 mins
[8] = icilin 2500 μM applied to paw, 50 mins
[9] = icilin 5000 μM applied to paw, 15 mins
[10] = icilin 5000 μM applied to paw, 50 mins
[11] = intrathecal, non-linear curve-fitting

SMILES: CC(C)[C@@H]1CC[C@@H](C)C[C@H]1O [(−)-menthol, 1R,2S,5R-(−)-menthol]
- mean percentage reversal of sensitisation, PWL [1, 4]: 86.1±8.1%
- mean percentage reversal of sensitisation, PWT [1, 4]: 80.6±4.2%
- duration of significant reversal of sensitised responses ([1]; intrathecal, icilin 10 nmol): 35 to 40 min

SMILES: O=C1NC(c2cccc([N+](=O)[O-])c2)=CCN1c1ccccc1O [icilin, 1-(2′-hydroxyphenyl)-4-(3″-nitrophenyl)-1,2,3,6-tetrahydropyrimidin-2-one]
- Mechanical PWT [2, 5]: 4830.6 ± 0.0 mN/mm^2
- Thermal PWL [2, 5]: 15.1 ± 1.2 s
- Mechanical PWT [2, 6]: 4830.6 ± 0.0 mN/mm^2
- Thermal PWL [2, 6]: 14.8 ± 0.9 s
- Mechanical PWT [2, 7]: 4830.6 ± 0.0 mN/mm^2
- Thermal PWL [2, 7]: 14.9 ± 0.3 s
- Mechanical PWT [2, 8]: 4830.6 ± 0.0 mN/mm^2
- Thermal PWL [2, 8]: 13.2 ± 0.8 s
- Mechanical PWT [2, 9]: 3828.6 ± 316.8 mN/mm^2
- Thermal PWL [2, 9]: 15.3 ± 0.5 s
- Mechanical PWT [2, 10]: 4830.6 ± 0.0 mN/mm^2
- Thermal PWL [2, 10]: 13.1 ± 0.7 s
- Ipsilateral PWL ([1]; CCI, NMDA/ACPC in the additional presence of icilin 10 nmol): 14.9 ± 0.6 s
- Ipsilateral PWT ([1]; CCI, NMDA/ACPC with co-injection of icilin 10 nmol): 3482.7±174.3 mN/mm^2
- Mean % reversal of mechanical sensitisation (after 15-30 mins) ([1]; CCI, icilin 10 nmol, i.t.): 76.8 ± 5.3%
- Mean % reversal of thermal sensitisation (after 15-30 mins) ([1]; CCI, icilin 10 nmol, i.t.): 84.7 ± 6.0%
- PWL (s) difference from control (+ icilin) ([1]; CCI, icilin 10 nmol, i.t.): 0.9 ± 1.2 s
- PWT (mN/mm^2) difference from control (+ icilin) ([1]; CCI, icilin 10 nmol, i.t.): 775.4 ± 467.7 mN/mm^2
- EC50 ([1]; intrathecal, non-linear curve-fitting, read-out: EC50 (dose for 50% of maximal effect), PWL): 0.17 ± 0.02 nM
- EC50 ([1]; intrathecal, non-linear curve-fitting, read-out: EC50 (dose for 50% of maximal effect), PWT): 0.31 ± 0.02 nM
- duration of significant reversal of sensitised responses ([1]; intrathecal, icilin 10 nmol): up to 55 min
- maximal effect, reversal of sensitisation, PWL [1, 11]: 91.6±9.9%
- maximal effect, reversal of sensitisation, PWT [1, 11]: 82.6±6.8%
- dose by which analgesic effects were statistically significant ([1]; intrathecal, thermal and mechanical tests, nerve injury side): 0.125 nmol
- analgesia in cancer-induced bone pain (mechanical allodynia, movement-evoked pain) [3]: causes analgesia
